Assay results taken from patent publication US11005049B2, “Metal complexes” (priority 2013, dated 2021).
“And” between values parts separate entries of the source, which are not always exact repeats. Identical values can stand only once. Like-named read-outs stand apart in the source and are kept apart here.

What was measured:
[1] = system: Salmonella typhimurium strain TA98; experiment: standardised AMES test, strain TA98; format: cell-based
Excerpt: (§1) The solvent used is DMSO (dimethyl sulfoxide).

[2] = system: Salmonella typhimurium strain TA102; experiment: standardised AMES test, strain TA102; format: cell-based
[3] = system: Salmonella typhimurium; strains TA98, TA100 and TA102; experiment: standardised AMES test, overall mutagenicity finding; format: cell-based
Excerpt: as §1

[4] = system: Salmonella typhimurium strain TA100
Protocol: Compounds V1 and E2 are subjected to a standardised AMES test (bacteria: Salmonella typhimurium; strains TA98, TA100 and TA102). […] The test is carried out by the person skilled in the art employing standard methods which are well known in the prior art. The solvent used is DMSO (dimethyl sulfoxide).
The test is carried out both without and also with metabolic activation using an S9 mix.

[5] = metabolic activation using S9 mix, 5 μg/plate
[6] = metabolic activation using S9 mix, 15.8 μg/plate
[7] = metabolic activation using S9 mix, 50 μg/plate
[8] = metabolic activation using S9 mix, 158 μg/plate
[9] = metabolic activation using S9 mix, 500 μg/plate
[10] = metabolic activation using S9 mix, 1580 μg/plate
[11] = metabolic activation using S9 mix, 5000 μg/plate
[12] = no metabolic activation, 5 μg/plate
[13] = no metabolic activation, 15.8 μg/plate
[14] = no metabolic activation, 50 μg/plate
[15] = no metabolic activation, 158 μg/plate
[16] = no metabolic activation, 500 μg/plate
[17] = no metabolic activation, 1580 μg/plate
[18] = no metabolic activation, 5000 μg/plate

CC(C)(C)c1ccc2cccc(O)c2n1.[Li] [Compound E2, lithium 2-tert-butyl-8-hydroxyquinoline]
Revertants/plate (mean ± SD) TA98 [1, 5]: 24 ± 6 Revertants/plate
Revertants/plate (mean ± SD) TA98 [1, 6]: 30 ± 2 Revertants/plate
Revertants/plate (mean ± SD) TA98 [1, 7]: 33 ± 4 Revertants/plate
Revertants/plate (mean ± SD) TA98 [1, 8]: 30 ± 3^S Revertants/plate
Revertants/plate (mean ± SD) TA98 [1, 9]: 25 ± 7^SB Revertants/plate
Revertants/plate (mean ± SD) TA98 [1, 10]: 18 ± 5^SB Revertants/plate
Revertants/plate (mean ± SD) TA98 [1, 11]: 13 ± 1^SE Revertants/plate
Revertants/plate (mean ± SD) TA98 [1, 12]: 23 ± 11 Revertants/plate
Revertants/plate (mean ± SD) TA98 [1, 13]: 29 ± 3 Revertants/plate
Revertants/plate (mean ± SD) TA98 [1, 14]: 18 ± 6 Revertants/plate
Revertants/plate (mean ± SD) TA98 [1, 15]: 20 ± 6^S Revertants/plate
Revertants/plate (mean ± SD) TA98 [1, 16]: 14 ± 8^SB Revertants/plate
Revertants/plate (mean ± SD) TA98 [1, 17]: 10 ± 4^SB Revertants/plate
Revertants/plate (mean ± SD) TA98 [1, 18]: 17 ± 6^SE Revertants/plate
Revertants/plate (mean ± SD) TA102 [2, 5]: 302 ± 18 Revertants/plate
Revertants/plate (mean ± SD) TA102 [2, 6]: 255 ± 8 Revertants/plate
Revertants/plate (mean ± SD) TA102 [2, 7]: 245 ± 22 Revertants/plate
Revertants/plate (mean ± SD) TA102 [2, 8]: 142 ± 22^S Revertants/plate
Revertants/plate (mean ± SD) TA102 [2, 9]: 89 ± 11^SB Revertants/plate
Revertants/plate (mean ± SD) TA102 [2, 10]: 62 ± 3^SB Revertants/plate
Revertants/plate (mean ± SD) TA102 [2, 11]: 37 ± 1^SE Revertants/plate
Revertants/plate (mean ± SD) TA102 [2, 12]: 224 ± 6 Revertants/plate
Revertants/plate (mean ± SD) TA102 [2, 13]: 217 ± 41 Revertants/plate
Revertants/plate (mean ± SD) TA102 [2, 14]: 237 ± 11 Revertants/plate
Revertants/plate (mean ± SD) TA102 [2, 15]: 180 ± 11^S Revertants/plate
Revertants/plate (mean ± SD) TA102 [2, 16]: 124 ± 1^SB Revertants/plate
Revertants/plate (mean ± SD) TA102 [2, 17]: 51 ± 18^SB Revertants/plate
Revertants/plate (mean ± SD) TA102 [2, 18]: 25 ± 1^SE Revertants/plate
mutagenic effect in AMES test ([3]; both without and with metabolic activation using an S9 mix): No mutagenic effect
Revertants/plate (mean ± SD) TA100 [4, 5]: 199 ± 4 Revertants/plate
Revertants/plate (mean ± SD) TA100 [4, 6]: 132 ± 11 Revertants/plate
Revertants/plate (mean ± SD) TA100 [4, 7]: 143 ± 8 Revertants/plate
Revertants/plate (mean ± SD) TA100 [4, 8]: 147 ± 8^S Revertants/plate
Revertants/plate (mean ± SD) TA100 [4, 9]: 108 ± 1^SB Revertants/plate
Revertants/plate (mean ± SD) TA100 [4, 10]: 57 ± 16 Revertants/plate
Revertants/plate (mean ± SD) TA100 [4, 11]: 4 ± 3 Revertants/plate
Revertants/plate (mean ± SD) TA100 [4, 12]: 142 ± 25 Revertants/plate
Revertants/plate (mean ± SD) TA100 [4, 13]: 133 ± 8 Revertants/plate
Revertants/plate (mean ± SD) TA100 [4, 14]: 104 ± 12 Revertants/plate
Revertants/plate (mean ± SD) TA100 [4, 15]: 103 ± 1^S Revertants/plate
Revertants/plate (mean ± SD) TA100 [4, 16]: 62 ± 17^SB Revertants/plate
Revertants/plate (mean ± SD) TA100 [4, 17]: 41 ± 2 Revertants/plate
Revertants/plate (mean ± SD) TA100 [4, 18]: 7 ± 3 Revertants/plate

Oc1cccc2cccnc12.[Li] [Liq, lithium 8-hydroxyquinoline, reference compound]
Revertants/plate (mean ± SD) TA98 [1, 5]: 31 ± 11 Revertants/plate
Revertants/plate (mean ± SD) TA98 [1, 6]: 40 ± 2 Revertants/plate
Revertants/plate (mean ± SD) TA98 [1, 7]: 87 ± 1 Revertants/plate
Revertants/plate (mean ± SD) TA98 [1, 8]: 100 ± 4 Revertants/plate
Revertants/plate (mean ± SD) TA98 [1, 12]: 23 ± 2 Revertants/plate
Revertants/plate (mean ± SD) TA98 [1, 13]: 20 ± 4 Revertants/plate
Revertants/plate (mean ± SD) TA98 [1, 14]: 22 ± 1 Revertants/plate
Revertants/plate (mean ± SD) TA102 [2, 5]: 559 ± 8 Revertants/plate
Revertants/plate (mean ± SD) TA102 [2, 6]: 697 ± 8 Revertants/plate
Revertants/plate (mean ± SD) TA102 [2, 7]: 1469 ± 27 Revertants/plate
Revertants/plate (mean ± SD) TA102 [2, 8]: 911 ± 269 Revertants/plate
Revertants/plate (mean ± SD) TA102 [2, 12]: 344 ± 33 Revertants/plate
Revertants/plate (mean ± SD) TA102 [2, 13]: 270 ± 30 Revertants/plate
Revertants/plate (mean ± SD) TA102 [2, 14]: 257 ± 59 Revertants/plate
mutagenicity in AMES test ([3]; all three bacteria strains, in the presence of metabolic activation): significant mutagenicity

[N-]=[N+]=[N-] [NaN3, sodium azide, reference compound]
Revertants/plate (mean ± SD) TA100 ([4]; no metabolic activation, 2 μg/plate, reference): 1090 ± 35 Revertants/plate and 743 ± 52 Revertants/plate
